Measurements reported in paper PMC5540273, “Progress towards a public chemogenomic set for protein kinases and a call for contributions” (PLoS ONE, 2017).

Tests used:
Test in all cases: KINOMEscan competition binding
DYRK1A = DYRK1A (Homo sapiens, UniProt Q13627); details: read-out: %Inh DYRK1A
CAMK2G = CAMK2G (Homo sapiens, UniProt Q13555); details: read-out: %Inh CAMK2G
EPHB3 = target: T1, EPHB3 (Homo sapiens, UniProt P54753); details: read-out: %Inh EPHB3
T1 sequence (P54753 34-998): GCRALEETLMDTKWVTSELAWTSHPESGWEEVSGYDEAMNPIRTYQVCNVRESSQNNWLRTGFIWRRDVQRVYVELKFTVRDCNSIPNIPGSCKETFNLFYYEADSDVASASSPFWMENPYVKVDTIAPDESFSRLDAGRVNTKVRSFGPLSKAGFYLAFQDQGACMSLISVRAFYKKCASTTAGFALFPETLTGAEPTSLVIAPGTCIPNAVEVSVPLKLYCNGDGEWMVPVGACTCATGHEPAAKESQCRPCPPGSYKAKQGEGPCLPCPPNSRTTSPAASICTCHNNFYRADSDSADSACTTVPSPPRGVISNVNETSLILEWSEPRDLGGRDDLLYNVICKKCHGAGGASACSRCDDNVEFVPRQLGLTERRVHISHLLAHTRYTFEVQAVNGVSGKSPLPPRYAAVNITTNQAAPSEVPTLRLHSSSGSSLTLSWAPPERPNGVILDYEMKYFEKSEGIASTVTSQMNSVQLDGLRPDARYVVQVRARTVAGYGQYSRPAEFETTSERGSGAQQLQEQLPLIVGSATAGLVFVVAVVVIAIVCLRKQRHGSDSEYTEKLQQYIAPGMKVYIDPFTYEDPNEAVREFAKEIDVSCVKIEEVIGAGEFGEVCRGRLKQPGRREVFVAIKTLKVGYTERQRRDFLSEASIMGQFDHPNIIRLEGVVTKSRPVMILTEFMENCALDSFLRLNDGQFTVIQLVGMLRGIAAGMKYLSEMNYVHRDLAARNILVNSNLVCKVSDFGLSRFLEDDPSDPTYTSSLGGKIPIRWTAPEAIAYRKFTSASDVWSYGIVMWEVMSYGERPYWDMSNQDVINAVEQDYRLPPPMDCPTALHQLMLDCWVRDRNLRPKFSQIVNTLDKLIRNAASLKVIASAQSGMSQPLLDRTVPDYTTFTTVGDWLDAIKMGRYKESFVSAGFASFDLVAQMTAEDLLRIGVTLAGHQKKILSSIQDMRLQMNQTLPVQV

CDKL1 = CDKL1 (Homo sapiens, UniProt Q00532); details: read-out: %Inh CDKL1
CDKL1, sequence (Q00532 whole entry): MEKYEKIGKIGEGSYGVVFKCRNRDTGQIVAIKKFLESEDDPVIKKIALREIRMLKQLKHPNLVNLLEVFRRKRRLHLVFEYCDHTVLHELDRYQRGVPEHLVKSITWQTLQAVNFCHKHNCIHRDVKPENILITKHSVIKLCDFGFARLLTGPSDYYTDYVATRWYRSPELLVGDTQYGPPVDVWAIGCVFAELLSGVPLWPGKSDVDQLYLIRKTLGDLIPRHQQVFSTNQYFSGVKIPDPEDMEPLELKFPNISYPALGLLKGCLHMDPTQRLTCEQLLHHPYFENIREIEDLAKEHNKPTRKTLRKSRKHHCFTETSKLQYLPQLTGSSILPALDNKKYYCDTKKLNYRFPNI

FGFR1 = FGFR1 (Homo sapiens, UniProt P11362); details: read-out: %Inh FGFR1
FGFR1, sequence (P11362 22-822): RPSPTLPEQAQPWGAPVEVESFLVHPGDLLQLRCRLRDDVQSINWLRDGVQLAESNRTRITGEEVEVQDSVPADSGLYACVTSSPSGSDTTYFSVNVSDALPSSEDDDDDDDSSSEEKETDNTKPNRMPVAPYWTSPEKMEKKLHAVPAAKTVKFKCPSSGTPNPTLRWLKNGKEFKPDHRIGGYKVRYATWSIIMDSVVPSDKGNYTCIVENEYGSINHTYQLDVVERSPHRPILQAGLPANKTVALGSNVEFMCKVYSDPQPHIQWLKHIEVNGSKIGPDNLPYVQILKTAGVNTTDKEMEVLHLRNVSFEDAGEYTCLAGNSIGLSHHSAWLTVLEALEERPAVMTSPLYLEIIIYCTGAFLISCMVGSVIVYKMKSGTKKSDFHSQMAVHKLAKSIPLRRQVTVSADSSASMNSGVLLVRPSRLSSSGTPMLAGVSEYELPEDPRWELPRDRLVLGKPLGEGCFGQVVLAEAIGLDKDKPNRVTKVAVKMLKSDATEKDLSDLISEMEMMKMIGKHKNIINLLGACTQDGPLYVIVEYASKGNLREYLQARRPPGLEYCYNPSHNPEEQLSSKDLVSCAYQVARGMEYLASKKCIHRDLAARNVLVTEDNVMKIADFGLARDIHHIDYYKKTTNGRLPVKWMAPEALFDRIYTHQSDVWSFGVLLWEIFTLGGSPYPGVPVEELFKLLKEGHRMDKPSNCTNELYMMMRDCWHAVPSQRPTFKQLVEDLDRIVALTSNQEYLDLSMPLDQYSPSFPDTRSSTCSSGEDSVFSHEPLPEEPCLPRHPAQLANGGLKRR

CDKL2 = target: T2, CDKL2 (Homo sapiens, UniProt Q92772); details: read-out: %Inh CDKL2
T2 sequence (Q92772 1-493): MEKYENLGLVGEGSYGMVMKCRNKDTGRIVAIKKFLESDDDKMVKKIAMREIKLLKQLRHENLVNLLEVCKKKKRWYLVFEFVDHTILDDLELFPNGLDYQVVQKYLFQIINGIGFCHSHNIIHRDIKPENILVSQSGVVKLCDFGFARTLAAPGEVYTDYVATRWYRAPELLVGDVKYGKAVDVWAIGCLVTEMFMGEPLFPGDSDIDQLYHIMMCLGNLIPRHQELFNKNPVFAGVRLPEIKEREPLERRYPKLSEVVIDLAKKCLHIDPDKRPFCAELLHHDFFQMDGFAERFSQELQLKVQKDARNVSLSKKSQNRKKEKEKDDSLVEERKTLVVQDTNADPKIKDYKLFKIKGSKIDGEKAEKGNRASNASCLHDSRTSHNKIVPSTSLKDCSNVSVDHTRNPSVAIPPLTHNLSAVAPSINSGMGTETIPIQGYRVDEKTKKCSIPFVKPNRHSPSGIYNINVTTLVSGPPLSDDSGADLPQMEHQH

FER = FER (Homo sapiens, UniProt P16591); details: read-out: %Inh FER
FER, sequence (P16591 whole entry): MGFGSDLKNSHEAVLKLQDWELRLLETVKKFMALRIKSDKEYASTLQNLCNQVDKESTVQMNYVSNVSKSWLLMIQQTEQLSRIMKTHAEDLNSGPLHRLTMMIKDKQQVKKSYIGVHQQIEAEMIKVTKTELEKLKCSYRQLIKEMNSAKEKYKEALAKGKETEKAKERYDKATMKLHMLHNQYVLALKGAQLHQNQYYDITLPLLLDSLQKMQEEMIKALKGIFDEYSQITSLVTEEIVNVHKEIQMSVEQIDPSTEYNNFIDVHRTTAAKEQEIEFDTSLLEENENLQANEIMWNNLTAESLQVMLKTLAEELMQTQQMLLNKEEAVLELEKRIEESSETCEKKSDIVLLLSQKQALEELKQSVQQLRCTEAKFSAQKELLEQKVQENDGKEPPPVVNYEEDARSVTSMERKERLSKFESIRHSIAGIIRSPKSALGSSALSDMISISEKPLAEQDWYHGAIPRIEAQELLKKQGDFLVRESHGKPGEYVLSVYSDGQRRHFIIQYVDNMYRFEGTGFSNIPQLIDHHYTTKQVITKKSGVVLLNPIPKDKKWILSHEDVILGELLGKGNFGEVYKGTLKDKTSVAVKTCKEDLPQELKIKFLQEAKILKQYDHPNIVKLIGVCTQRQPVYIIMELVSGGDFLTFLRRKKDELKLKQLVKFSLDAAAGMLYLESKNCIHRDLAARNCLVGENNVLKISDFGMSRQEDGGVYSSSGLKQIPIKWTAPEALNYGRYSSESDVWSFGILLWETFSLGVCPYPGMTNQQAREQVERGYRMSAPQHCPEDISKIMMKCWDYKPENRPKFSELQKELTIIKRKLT

CAMK1D = CAMK1D (Homo sapiens, UniProt Q8IU85); details: read-out: %Inh CAMK1D
CAMK1D, sequence (Q8IU85 whole entry): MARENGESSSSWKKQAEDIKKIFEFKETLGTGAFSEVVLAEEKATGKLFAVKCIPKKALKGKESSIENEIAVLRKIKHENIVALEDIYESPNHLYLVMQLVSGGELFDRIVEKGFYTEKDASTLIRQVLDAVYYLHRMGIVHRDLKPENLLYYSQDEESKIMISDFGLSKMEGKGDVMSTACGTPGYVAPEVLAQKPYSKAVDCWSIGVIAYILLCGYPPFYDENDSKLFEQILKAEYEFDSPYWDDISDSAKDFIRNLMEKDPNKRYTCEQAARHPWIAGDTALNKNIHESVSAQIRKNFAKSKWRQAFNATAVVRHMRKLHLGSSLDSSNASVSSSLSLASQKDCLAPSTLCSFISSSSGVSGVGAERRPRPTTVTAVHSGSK

DRAK1 = target: T3, DRAK1 (Homo sapiens, UniProt Q9UEE5); details: read-out: %Inh DRAK1
T3 sequence (Q9UEE5 1-414): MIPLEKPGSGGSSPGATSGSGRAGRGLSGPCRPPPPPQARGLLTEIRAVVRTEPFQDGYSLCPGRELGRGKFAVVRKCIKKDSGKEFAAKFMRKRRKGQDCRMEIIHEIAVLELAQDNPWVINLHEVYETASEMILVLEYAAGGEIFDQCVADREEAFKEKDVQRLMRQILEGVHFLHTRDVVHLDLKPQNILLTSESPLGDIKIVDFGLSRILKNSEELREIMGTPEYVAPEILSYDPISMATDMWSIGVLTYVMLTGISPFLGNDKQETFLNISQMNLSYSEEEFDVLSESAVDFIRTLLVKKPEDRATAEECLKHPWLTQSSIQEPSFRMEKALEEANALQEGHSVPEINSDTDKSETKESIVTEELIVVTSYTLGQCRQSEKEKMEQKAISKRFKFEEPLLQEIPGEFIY

IRAK4 = target: T4, IRAK4 (Homo sapiens, UniProt Q9NWZ3); details: read-out: %Inh IRAK4
T4 sequence (Q9NWZ3 1-460): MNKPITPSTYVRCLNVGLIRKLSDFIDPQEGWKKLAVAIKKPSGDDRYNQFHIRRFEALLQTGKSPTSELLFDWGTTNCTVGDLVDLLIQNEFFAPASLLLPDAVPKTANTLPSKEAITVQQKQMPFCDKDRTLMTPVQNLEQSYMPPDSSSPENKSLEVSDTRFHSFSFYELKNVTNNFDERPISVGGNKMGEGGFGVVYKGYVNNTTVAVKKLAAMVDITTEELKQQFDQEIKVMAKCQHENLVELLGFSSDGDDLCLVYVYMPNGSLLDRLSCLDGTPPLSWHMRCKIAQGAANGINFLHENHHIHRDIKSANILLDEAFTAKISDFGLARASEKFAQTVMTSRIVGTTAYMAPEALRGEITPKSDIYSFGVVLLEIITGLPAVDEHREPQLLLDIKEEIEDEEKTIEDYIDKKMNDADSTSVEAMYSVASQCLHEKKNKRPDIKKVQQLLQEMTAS

CAMK2G, sequence (Q13555 whole entry): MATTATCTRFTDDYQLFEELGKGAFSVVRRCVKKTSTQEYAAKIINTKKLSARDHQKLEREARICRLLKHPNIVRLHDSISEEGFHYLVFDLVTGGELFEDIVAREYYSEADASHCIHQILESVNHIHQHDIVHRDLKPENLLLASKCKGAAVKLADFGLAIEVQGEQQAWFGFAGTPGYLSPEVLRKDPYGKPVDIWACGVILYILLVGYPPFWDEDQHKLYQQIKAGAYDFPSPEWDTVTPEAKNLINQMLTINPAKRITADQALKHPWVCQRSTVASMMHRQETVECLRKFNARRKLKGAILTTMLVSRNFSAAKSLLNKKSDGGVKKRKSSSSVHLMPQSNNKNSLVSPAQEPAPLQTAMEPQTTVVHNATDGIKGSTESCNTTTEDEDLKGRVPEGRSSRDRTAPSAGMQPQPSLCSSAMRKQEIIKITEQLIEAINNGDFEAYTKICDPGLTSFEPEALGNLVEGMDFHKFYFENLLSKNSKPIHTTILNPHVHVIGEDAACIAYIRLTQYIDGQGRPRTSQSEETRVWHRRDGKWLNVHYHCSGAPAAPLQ

Structure (SMILES)	inhibition at 1 µM (DYRK1A) [%]	inhibition at 1 µM (CAMK2G) [%]	inhibition at 1 µM (EPHB3) [%]	inhibition at 1 µM (CDKL1) [%]	inhibition at 1 µM (FGFR1) [%]	inhibition at 1 µM (CDKL2) [%]	inhibition at 1 µM (FER) [%]	inhibition at 1 µM (CAMK1D) [%]	inhibition at 1 µM (DRAK1) [%]	inhibition at 1 µM (IRAK4) [%]
Cn1cc(-c2cnc(N)c3c(-c4ccc5c(c4)CCN5C(=O)Cc4ccccc4)csc23)cn1 [UNC10225012A]	0	13	4	9	28	0	10	11	0	0
O=c1cc(N2CCOCC2)nc2n(Cc3cccc(Cl)c3Cl)c(C3CC3)nn12 [UNC10225469A]	2	0	7	20	0	0	3	0	11	0
COc1cccc(OC)c1C(=O)Nc1cccc(-c2nn3ccccc3c2-c2ccnc(Nc3cccc(F)c3)n2)c1 [UNC10225310A]	0	0	8	15	11	6	24	13	12	0
CS(=O)(=O)Cc1ccc(Nc2nccc(-c3c(-c4cccc(NC(=O)C5CCCCC5)c4)nn4ncccc34)n2)cc1 [UNC10225159A]	26	0	5	0	0	5	8	0	0	25
Cc1ccc(NC(=O)Nc2cccc(C(F)(F)F)c2)cc1 [UNC10225187A]	0	4	0	14	1	0	0	25	15	0
